Data on 2 substances can be found in patent publication US9834660B2, “Rare earth metal complexes that excite in the long UV wavelength range” (HONEYWELL INTERNATIONAL INC., priority 2007, dated 2017).

The nature of the data set: Lightfastness: fluorescence intensity of dried drops on filter paper before and after SOL2 irradiation (simulated sunlight behind window glass). Type of data set: physicochemical. As to conditions: dried drop on filter paper; for fluorescence intensity after 20 h of irradiation: after 20 h of irradiation (SOL2), 366 nm; for starting fluorescence intensity under 366 nm wavelength: before SOL2 irradiation, formula (IV) 5% solution in water, comparator in ethanol. An excerpt: As used herein, “lightfast,” “lightfastness,” and “light stable” are used interchangeably as measures of the degree of stability of fluorescence when a compound or composition is irradiated with light energy. The lightfastness of the europium complex of formula (IV), Europium[tris-4,4′-[3-[4-(4-sulfophenyl)-2-pyridinyl]-1,2,4-triazine-5,6-diphenyl]-bis-benzenesulfonic acid, trisodium)] chloride, was compared with a known europium diketonate complex, europium tris-benzoyltrifluoro-acetone, as follows: a 5% solution containing formula (IV) (in water) and a solution of europium-tris-benzoyltrifluoro-acetone (in ethanol) were prepared. One drop from each solution was placed onto a piece of filter paper. The drops were dried in air. The dried drops were then irradiated with SOL2 equipment (simulation of sunlight behind window glass). The starting fluorescence intensity under 366 nm wavelength for the drop containing europium-tris-benzoyltrifluoro-acetone was 19.4 cd/m^2, and the starting fluorescence intensity for the drop containing formula (IV) was 11.5 cd/m^2. After 20 h of irradiation at 366 nm, the fluorescence intensity for the drop containing europium-tris-benzoyltrifluoro-acetone had decreased to only 3.2 cd/m^2, as compared with a fluorescence intensity for the drop containing formula (IV) that was 10.7 cd/m^2.
This occurred even though the molar concentration of the solution containing formula (IV) was lower than the molar concentration of europium-tris-benzoyltrifluoro-acetone (2.2×10^−4 mol versus 6×10^−4 mol, respectively).

Consider “Europium[tris-4,4′-[3-[4-(4-sulfophenyl)-2-pyridinyl]-1,2,4-triazine-5,6-diphenyl]-bis-benzenesulfonic acid, trisodium)] chloride [formula (IV)]”, for which the “fluorescence intensity after 20 h of irradiation” value is reported as 10.7 cd/m^2 and the “starting fluorescence intensity under 366 nm wavelength” value is 11.5 cd/m^2.

On to “europium tris-benzoyltrifluoro-acetone [europium-tris-benzoyltrifluoro-acetone]”, for which the “fluorescence intensity after 20 h of irradiation” value is reported as 3.2 cd/m^2 and the “starting fluorescence intensity under 366 nm wavelength” value is 19.4 cd/m^2.
